PMC9329436, “Optimization of the 4-anilinoquin(az)oline scaffold as epidermal growth factor receptor (EGFR) inhibitors for chordoma utilizing a toxicology profiling assay platform” (Scientific Reports, 2022)
Where two headings read alike, the source gives them in different places.

Experiments:
Type in all cases: biochemical
[1] = biological target: 320 wild-type protein kinases (Homo sapiens, UniProt P78368); conditions: singlicate
Text: (§1) Table S4. Profiling of two compounds at two concentrations against 320 wild-type protein kinases; singlicate measurement; Residual activities (% of control).

[2] = biological target: T1, 320 wild-type protein kinases (Homo sapiens, UniProt O60285); conditions: singlicate
T1 sequence (O60285 1-661): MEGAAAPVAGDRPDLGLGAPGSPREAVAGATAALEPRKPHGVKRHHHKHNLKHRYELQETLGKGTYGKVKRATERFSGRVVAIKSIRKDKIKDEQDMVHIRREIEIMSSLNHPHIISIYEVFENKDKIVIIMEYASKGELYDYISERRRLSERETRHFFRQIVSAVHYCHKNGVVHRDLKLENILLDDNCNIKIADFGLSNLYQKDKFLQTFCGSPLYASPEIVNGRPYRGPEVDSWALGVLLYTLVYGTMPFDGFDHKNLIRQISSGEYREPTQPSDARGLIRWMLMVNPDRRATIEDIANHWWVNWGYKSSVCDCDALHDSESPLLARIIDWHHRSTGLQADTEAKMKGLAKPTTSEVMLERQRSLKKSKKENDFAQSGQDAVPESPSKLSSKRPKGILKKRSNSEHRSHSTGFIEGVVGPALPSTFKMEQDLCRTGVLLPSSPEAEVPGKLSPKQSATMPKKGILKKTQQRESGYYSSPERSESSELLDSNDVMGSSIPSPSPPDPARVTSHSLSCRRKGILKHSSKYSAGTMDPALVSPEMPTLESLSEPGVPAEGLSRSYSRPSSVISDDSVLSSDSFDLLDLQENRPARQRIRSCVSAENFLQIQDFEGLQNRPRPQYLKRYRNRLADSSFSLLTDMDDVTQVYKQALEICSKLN
Text: as §1

[3] = biological target: 320 wild-type protein kinases (Homo sapiens, UniProt Q9H422); conditions: singlicate
Chain of 320 wild-type protein kinases (Homo sapiens, UniProt Q9H422) (Q9H422 whole entry): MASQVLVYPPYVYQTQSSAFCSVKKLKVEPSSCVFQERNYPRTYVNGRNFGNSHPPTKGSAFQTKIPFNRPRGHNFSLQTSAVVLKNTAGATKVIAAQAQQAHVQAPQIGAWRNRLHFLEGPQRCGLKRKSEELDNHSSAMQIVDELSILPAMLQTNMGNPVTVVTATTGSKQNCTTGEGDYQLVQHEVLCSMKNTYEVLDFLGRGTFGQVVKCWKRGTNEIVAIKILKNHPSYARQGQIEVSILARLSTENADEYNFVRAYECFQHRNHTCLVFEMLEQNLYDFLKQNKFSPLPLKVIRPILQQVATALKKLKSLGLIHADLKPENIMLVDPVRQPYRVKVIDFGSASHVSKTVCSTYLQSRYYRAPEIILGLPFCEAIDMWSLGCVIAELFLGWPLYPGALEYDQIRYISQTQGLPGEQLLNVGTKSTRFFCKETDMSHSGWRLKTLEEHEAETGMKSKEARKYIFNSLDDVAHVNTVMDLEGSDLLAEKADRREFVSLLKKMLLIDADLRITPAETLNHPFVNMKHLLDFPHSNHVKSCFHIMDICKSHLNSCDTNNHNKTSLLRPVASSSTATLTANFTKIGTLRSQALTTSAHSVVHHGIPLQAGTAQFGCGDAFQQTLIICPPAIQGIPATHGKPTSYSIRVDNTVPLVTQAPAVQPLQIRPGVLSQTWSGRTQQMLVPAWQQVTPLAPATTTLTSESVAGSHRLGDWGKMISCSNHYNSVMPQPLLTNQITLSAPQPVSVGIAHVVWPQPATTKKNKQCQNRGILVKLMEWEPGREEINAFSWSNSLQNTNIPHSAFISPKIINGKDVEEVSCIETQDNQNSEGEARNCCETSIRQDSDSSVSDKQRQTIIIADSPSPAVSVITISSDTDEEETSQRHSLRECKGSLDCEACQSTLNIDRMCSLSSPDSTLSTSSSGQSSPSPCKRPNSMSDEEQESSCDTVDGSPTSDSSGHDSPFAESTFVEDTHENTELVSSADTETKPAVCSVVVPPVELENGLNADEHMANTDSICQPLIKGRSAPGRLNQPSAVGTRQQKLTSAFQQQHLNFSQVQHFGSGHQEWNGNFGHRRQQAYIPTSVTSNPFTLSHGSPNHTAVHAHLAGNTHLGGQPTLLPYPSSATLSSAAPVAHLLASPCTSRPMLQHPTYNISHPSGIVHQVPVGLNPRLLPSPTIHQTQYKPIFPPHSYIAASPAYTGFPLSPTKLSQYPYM
Text: as §1

[4] = biological target: T2, 320 wild-type protein kinases (Homo sapiens, UniProt Q92630); conditions: singlicate
T2 sequence (Q92630 1-601): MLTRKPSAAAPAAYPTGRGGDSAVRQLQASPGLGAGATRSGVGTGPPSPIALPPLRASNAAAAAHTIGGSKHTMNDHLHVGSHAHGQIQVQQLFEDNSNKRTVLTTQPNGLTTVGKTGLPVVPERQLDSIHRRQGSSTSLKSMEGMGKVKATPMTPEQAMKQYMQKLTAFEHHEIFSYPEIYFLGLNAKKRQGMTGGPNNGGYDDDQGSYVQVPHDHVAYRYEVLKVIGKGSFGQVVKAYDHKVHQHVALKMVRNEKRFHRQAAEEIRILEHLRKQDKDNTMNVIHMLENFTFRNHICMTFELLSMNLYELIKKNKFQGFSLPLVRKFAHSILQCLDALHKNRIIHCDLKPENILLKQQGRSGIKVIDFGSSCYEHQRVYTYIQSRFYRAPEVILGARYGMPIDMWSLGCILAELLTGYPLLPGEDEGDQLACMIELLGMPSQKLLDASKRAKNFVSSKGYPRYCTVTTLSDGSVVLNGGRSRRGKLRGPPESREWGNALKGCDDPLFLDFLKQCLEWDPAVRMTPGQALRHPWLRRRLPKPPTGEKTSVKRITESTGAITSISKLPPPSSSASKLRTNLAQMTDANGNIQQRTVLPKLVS
Text: as §1

[5] = biological target: 320 wild-type protein kinases (Homo sapiens, UniProt P53355); conditions: singlicate
Chain of 320 wild-type protein kinases (Homo sapiens, UniProt P53355) (P53355 whole entry): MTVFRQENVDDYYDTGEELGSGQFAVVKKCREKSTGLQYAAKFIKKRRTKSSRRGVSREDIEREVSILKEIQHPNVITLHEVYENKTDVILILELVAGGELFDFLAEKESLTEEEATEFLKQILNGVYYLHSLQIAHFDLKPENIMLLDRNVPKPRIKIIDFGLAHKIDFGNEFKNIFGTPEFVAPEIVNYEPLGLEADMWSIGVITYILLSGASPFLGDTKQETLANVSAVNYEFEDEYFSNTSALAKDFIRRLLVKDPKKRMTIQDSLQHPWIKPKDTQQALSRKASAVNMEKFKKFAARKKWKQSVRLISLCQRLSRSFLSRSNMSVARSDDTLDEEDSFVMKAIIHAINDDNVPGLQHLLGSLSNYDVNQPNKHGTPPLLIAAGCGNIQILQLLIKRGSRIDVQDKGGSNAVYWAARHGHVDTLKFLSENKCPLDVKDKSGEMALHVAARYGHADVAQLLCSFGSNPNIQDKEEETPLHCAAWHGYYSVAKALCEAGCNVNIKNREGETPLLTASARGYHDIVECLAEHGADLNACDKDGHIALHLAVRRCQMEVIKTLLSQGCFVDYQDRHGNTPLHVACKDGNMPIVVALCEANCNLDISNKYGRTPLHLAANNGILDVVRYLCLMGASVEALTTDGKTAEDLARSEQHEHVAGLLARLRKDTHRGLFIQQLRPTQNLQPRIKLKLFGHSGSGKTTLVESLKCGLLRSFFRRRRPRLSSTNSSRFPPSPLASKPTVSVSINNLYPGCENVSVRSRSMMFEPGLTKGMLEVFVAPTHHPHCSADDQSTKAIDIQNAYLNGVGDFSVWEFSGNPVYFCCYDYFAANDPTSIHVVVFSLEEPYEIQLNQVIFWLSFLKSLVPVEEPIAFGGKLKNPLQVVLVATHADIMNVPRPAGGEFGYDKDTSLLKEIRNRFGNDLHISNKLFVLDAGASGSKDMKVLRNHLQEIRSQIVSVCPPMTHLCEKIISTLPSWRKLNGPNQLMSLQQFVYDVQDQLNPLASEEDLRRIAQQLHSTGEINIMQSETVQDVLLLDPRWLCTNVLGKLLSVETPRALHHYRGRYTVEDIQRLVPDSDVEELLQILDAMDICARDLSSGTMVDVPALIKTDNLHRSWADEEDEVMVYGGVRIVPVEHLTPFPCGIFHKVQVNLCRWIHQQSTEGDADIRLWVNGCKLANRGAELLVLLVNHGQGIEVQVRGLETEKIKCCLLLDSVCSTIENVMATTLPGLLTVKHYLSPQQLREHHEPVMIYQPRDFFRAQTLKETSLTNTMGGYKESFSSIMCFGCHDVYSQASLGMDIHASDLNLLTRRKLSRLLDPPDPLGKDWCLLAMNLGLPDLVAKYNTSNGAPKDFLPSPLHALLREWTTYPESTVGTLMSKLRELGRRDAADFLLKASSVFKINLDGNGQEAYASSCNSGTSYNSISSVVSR
Text: as §1

[6] = biological target: 320 wild-type protein kinases (Homo sapiens, UniProt P30291); conditions: kinase WEE1, singlicate
Chain of 320 wild-type protein kinases (Homo sapiens, UniProt P30291) (P30291 whole entry): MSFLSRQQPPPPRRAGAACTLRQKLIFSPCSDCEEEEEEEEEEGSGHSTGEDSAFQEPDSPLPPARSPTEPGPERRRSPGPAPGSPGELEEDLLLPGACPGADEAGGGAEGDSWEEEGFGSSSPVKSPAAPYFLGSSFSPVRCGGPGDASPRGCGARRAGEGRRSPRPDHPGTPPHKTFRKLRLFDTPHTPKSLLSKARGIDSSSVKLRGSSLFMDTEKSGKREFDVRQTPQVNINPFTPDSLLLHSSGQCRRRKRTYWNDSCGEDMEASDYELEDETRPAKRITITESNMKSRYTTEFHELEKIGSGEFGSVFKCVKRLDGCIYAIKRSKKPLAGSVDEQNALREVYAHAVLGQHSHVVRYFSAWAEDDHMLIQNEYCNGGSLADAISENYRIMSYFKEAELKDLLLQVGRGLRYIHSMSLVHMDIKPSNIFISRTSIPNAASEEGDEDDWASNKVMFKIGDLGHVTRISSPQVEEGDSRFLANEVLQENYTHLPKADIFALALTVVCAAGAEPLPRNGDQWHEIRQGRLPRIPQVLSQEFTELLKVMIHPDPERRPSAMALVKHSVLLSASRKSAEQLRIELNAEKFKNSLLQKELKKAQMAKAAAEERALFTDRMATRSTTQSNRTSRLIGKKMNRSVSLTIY
Text: as §1

[7] = biological target: T3, 320 wild-type protein kinases (Homo sapiens, UniProt Q8TF76); conditions: singlicate
T3 sequence (Q8TF76 1-798): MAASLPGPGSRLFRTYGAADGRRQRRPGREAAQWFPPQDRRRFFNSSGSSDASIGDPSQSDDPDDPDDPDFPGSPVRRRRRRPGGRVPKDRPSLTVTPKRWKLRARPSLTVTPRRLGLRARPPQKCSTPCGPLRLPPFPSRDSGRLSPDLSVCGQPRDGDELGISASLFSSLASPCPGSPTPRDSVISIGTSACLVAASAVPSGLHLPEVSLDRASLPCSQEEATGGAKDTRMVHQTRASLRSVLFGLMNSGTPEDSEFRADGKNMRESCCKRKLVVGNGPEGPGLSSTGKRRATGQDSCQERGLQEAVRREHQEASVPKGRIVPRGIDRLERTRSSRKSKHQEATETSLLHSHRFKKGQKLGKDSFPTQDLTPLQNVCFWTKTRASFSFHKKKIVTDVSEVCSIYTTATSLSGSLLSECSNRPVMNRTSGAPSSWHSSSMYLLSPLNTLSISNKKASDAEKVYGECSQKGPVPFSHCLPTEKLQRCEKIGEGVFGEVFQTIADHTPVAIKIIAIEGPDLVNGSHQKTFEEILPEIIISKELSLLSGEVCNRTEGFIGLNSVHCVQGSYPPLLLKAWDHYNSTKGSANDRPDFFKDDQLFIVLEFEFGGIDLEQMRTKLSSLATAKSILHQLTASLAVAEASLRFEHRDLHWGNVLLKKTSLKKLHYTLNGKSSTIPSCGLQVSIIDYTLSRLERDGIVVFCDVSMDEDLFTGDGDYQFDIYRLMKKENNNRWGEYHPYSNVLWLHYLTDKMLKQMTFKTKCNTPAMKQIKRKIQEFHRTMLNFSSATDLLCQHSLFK
Text: as §1

Chain of 320 wild-type protein kinases (Homo sapiens, UniProt P78368) (P78368 whole entry): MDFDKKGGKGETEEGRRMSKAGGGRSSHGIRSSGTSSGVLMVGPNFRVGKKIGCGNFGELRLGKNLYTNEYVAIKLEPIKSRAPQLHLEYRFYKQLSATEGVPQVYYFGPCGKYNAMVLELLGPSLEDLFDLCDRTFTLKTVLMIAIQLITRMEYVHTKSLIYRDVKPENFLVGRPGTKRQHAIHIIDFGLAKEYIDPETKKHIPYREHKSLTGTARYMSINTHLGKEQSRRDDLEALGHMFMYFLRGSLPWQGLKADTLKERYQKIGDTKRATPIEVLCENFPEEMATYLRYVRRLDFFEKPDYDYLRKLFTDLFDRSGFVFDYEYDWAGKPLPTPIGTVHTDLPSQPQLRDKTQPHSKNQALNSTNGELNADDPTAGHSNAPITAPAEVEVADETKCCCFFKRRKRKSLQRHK

Structure (SMILES) | Residual activity ([1]; CK1-gamma2, 1.0E-06 M) | Residual activity ([1]; CK1-gamma2, 1.0E-07 M) | Residual activity ([2]; ARK5, 1.0E-06 M) | Residual activity ([2]; ARK5, 1.0E-07 M) | Residual activity ([3]; HIPK3, 1.0E-06 M) | Residual activity ([3]; HIPK3, 1.0E-07 M) | Residual activity ([4]; DYRK2, 1.0E-06 M) | Residual activity ([4]; DYRK2, 1.0E-07 M) | Residual activity ([5]; DAPK1, 1.0E-06 M) | Residual activity ([5]; DAPK1, 1.0E-07 M) | Residual activity, WEE1 ([6]; assay conc. 1.0E-06 M) | Residual activity, WEE1 ([6]; assay conc. 1.0E-07 M) | Residual activity ([7]; GSG2, 1.0E-06 M) | Residual activity ([7]; GSG2, 1.0E-07 M)
C#Cc1cc(Nc2ncnc3cc(I)ccc23)ccc1Cl [Compound 41] | 112 % of control | 119 % of control | 108 % of control | 110 % of control | 103 % of control | 98 % of control | 61 % of control | 84 % of control | 112 % of control | 125 % of control | 87 % of control | 112 % of control | 112 % of control | 113 % of control
C#Cc1cc(Nc2ncnc3cc(OC)c(OC)cc23)ccc1Cl [Compound 45] | 109 % of control | 111 % of control | 114 % of control | 104 % of control | 97 % of control | 102 % of control | 71 % of control | 89 % of control | 116 % of control | 126 % of control | 76 % of control | 109 % of control | 109 % of control | 115 % of control
